# Results published in PMC5622171 (Nature Communications, 2017).
# Legend:
# Assay in all cases: KINOMEscan kinase profiling
# Format in all cases: binding
# [1] = target: T1, YES (Homo sapiens, UniProt P07947); conditions: read-out: %Inhibition by 10 μM SPA70
# T1 construct: purchased DiscoverX (Ambit Biosciences) KINOMEscan
# Description: (§1) Kinase inhibition profiling assays. The kinase inhibition profiling assay (KINOMEscan) was performed by Ambit Biosciences, now part of DiscoveryX (Fremont, CA) in accordance with the […]
# (§2) published protocol20, 21. […] If the inhibition of a kinase was greater […]
# (§3) dilutions) starting from 30 µM.
# [2] = target: T2, PIP5K1A (Homo sapiens, UniProt Q99755); conditions: read-out: %Inhibition by 10 μM SPA70
# T2 construct: purchased DiscoverX (Ambit Biosciences) KINOMEscan
# Description: as §1, §2, §3
# [3] = target: T3, TYRO3 (Homo sapiens, UniProt Q06418); conditions: read-out: %Inhibition by 10 μM SPA70
# T3 construct: purchased DiscoverX (Ambit Biosciences) KINOMEscan
# Description: as §1, §2, §3
# [4] = target: T4, EGFR (Homo sapiens, UniProt P00533)
# T4 construct: purchased DiscoverX (Ambit Biosciences) KINOMEscan
# T4 sequence (P00533 25-1210): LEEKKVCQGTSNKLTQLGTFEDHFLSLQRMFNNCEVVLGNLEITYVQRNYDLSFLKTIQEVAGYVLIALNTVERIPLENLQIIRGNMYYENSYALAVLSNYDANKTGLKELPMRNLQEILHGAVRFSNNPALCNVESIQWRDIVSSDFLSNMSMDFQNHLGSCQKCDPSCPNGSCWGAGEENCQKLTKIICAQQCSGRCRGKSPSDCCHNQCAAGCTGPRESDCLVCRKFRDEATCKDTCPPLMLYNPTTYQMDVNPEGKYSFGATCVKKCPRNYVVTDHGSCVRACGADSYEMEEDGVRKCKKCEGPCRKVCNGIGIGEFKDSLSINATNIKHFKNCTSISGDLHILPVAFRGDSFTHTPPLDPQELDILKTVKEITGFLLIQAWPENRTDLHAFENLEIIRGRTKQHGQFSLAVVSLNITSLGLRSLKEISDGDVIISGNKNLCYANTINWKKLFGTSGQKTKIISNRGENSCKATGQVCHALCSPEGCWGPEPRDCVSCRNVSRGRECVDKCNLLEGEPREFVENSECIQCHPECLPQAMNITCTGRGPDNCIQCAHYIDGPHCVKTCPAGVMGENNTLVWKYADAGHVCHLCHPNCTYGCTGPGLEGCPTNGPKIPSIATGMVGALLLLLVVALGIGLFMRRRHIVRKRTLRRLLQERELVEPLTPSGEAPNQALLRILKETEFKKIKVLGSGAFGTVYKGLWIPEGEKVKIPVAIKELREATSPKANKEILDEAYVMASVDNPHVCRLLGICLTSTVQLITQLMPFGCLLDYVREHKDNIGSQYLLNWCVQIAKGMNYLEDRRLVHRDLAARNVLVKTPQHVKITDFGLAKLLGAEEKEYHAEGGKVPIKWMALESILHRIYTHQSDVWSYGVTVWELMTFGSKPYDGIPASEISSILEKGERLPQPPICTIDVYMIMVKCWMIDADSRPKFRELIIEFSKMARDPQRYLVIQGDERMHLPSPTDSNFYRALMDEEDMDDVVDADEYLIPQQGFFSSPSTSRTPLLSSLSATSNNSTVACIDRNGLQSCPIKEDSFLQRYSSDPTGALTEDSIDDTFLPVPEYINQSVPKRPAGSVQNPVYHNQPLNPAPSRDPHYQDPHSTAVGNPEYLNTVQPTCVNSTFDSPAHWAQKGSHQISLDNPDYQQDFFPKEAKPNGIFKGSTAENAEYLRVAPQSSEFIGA
# Description: as §1, §2, §3
# [5] = target: T5, FAK (Homo sapiens, UniProt Q05397); conditions: read-out: %Inhibition by 10 μM SPA70
# T5 construct: purchased DiscoverX (Ambit Biosciences) KINOMEscan
# Description: as §1, §2, §3
# [6] = target: T6, PIM1 (Homo sapiens, UniProt P11309); conditions: read-out: %Inhibition by 10 μM SPA70
# T6 construct: purchased DiscoverX (Ambit Biosciences) KINOMEscan
# T6 sequence (P11309 whole entry): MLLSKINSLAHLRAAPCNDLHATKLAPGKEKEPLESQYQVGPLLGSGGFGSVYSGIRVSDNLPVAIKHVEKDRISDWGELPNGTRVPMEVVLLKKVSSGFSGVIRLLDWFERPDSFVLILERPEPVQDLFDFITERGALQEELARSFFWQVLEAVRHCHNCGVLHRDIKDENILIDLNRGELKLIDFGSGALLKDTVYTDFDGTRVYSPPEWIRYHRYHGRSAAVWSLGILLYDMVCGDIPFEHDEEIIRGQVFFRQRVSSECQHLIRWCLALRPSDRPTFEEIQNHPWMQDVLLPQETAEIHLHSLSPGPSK
# Description: as §1, §2, §3
# [7] = target: T7, MKK7 (Homo sapiens, UniProt O14733)
# T7 construct: purchased DiscoverX (Ambit Biosciences) KINOMEscan
# Description: as §1, §2, §3
# [8] = target: T8, CHEK2 (Homo sapiens, UniProt O96017); conditions: read-out: %Inhibition by 10 μM SPA70
# T8 construct: purchased DiscoverX (Ambit Biosciences) KINOMEscan
# Description: as §1, §2, §3
# [9] = target: T9, TAK1 (Homo sapiens, UniProt O43318); conditions: read-out: %Inhibition by 10 μM SPA70
# T9 construct: purchased DiscoverX (Ambit Biosciences) KINOMEscan
# Description: as §1, §2, §3
# [10] = target: T10, AKT2 (Homo sapiens, UniProt P31751); conditions: read-out: %Inhibition by 10 μM SPA70
# T10 construct: purchased DiscoverX (Ambit Biosciences) KINOMEscan
# Description: as §1, §2, §3
# [11] = target: T11, CAMKK2 (Homo sapiens, UniProt Q96RR4); conditions: read-out: %Inhibition by 10 μM SPA70
# T11 construct: purchased DiscoverX (Ambit Biosciences) KINOMEscan
# Description: as §1, §2, §3
# [12] = target: T12, TEC (Homo sapiens, UniProt P42680); conditions: read-out: %Inhibition by 10 μM SPA70
# T12 construct: purchased DiscoverX (Ambit Biosciences) KINOMEscan
# Description: as §1, §2, §3
# [13] = target: T13, STK39 (Homo sapiens, UniProt Q9UEW8); conditions: read-out: %Inhibition by 10 μM SPA70
# T13 construct: purchased DiscoverX (Ambit Biosciences) KINOMEscan
# Description: as §1, §2, §3
# [14] = target: T14, PAK1 (Homo sapiens, UniProt Q13153); conditions: read-out: %Inhibition by 10 μM SPA70
# T14 construct: purchased DiscoverX (Ambit Biosciences) KINOMEscan
# Description: as §1, §2, §3
# [15] = target: T15, MARK4 (Homo sapiens, UniProt Q96L34)
# T15 construct: purchased DiscoverX (Ambit Biosciences) KINOMEscan
# Description: as §1, §2, §3
# [16] = target: T16, TBK1 (Homo sapiens, UniProt Q9UHD2); conditions: read-out: %Inhibition by 10 μM SPA70
# T16 construct: purchased DiscoverX (Ambit Biosciences) KINOMEscan
# Description: as §1, §2, §3
# [17] = target: T17, JNK1 (Homo sapiens, UniProt P45983)
# T17 construct: purchased DiscoverX (Ambit Biosciences) KINOMEscan
# Description: as §1, §2, §3
# [18] = target: T18, CSNK1G2 (Homo sapiens, UniProt P78368)
# T18 construct: purchased DiscoverX (Ambit Biosciences) KINOMEscan
# Description: as §1, §2, §3
# [19] = target: T19, IRAK4 (Homo sapiens, UniProt Q9NWZ3)
# T19 construct: purchased DiscoverX (Ambit Biosciences) KINOMEscan
# T19 sequence (Q9NWZ3 whole entry): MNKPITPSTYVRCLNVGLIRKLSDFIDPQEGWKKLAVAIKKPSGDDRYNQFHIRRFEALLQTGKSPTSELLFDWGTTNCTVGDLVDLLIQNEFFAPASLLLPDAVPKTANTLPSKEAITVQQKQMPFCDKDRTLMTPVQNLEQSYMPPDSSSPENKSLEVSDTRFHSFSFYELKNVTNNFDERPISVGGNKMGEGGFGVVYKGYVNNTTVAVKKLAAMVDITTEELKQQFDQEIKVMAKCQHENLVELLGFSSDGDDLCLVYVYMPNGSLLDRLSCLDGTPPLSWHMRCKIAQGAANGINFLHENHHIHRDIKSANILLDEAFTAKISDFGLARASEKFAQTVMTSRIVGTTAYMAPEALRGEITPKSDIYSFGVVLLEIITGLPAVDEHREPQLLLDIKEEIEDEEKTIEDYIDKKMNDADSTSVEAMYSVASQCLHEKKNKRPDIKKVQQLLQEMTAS
# Description: as §1, §2, §3
# [20] = target: T20, RPS6KA4(Kin.Dom.2-C-terminal) (Homo sapiens, UniProt O75676); conditions: read-out: %Inhibition by 10 μM SPA70
# T20 construct: RPS6KA4(Kin.Dom.2-C-terminal); purchased DiscoverX (Ambit Biosciences) KINOMEscan
# T20 sequence (O75676 372-772 limits assumed): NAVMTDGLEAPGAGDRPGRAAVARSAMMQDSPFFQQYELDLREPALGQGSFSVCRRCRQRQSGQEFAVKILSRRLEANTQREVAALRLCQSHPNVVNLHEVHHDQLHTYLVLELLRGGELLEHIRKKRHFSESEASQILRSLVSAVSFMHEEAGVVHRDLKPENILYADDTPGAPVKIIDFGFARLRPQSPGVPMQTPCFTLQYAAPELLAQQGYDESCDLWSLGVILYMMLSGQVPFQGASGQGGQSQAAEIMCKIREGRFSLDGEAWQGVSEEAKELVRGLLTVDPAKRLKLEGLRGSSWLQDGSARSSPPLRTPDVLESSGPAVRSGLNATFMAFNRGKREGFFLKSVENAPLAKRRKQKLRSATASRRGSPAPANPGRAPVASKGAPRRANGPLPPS
# Description: as §1, §2, §3
# [21] = target: T21, MKNK2 (Homo sapiens, UniProt Q9HBH9); conditions: read-out: %Inhibition by 10 μM SPA70
# T21 construct: purchased DiscoverX (Ambit Biosciences) KINOMEscan
# Description: as §1, §2, §3
# [22] = target: T22, SRPK2 (Homo sapiens, UniProt P78362); conditions: read-out: %Inhibition by 10 μM SPA70
# T22 construct: purchased DiscoverX (Ambit Biosciences) KINOMEscan
# Description: as §1, §2, §3
# [23] = target: T23, PAK2 (Homo sapiens, UniProt Q13177); conditions: read-out: %Inhibition by 10 μM SPA70
# T23 construct: purchased DiscoverX (Ambit Biosciences) KINOMEscan
# Description: as §1, §2, §3
# [24] = target: T24, BRK (Homo sapiens, UniProt Q13882); conditions: read-out: %Inhibition by 10 μM SPA70
# T24 construct: purchased DiscoverX (Ambit Biosciences) KINOMEscan
# T24 sequence (Q13882 whole entry): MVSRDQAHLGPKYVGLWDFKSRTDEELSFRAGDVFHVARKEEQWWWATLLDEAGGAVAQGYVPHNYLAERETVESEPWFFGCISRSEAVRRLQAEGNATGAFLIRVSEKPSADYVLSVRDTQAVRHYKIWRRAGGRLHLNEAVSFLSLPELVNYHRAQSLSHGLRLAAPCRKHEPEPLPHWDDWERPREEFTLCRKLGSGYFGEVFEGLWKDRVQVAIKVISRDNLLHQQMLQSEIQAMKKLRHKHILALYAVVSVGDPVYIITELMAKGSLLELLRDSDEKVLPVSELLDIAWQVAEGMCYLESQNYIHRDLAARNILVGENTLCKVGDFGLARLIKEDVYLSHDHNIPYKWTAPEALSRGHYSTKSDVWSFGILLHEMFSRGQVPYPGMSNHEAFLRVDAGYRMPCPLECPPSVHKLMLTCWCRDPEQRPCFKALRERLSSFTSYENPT
# Description: as §1, §2, §3
# [25] = target: T25, LIMK1 (Homo sapiens, UniProt P53667); conditions: read-out: %Inhibition by 10 μM SPA70
# T25 construct: purchased DiscoverX (Ambit Biosciences) KINOMEscan
# Description: as §1, §2, §3
# [26] = target: T26, CSNK1D (Homo sapiens, UniProt P48730); conditions: read-out: %Inhibition by 10 μM SPA70
# T26 construct: purchased DiscoverX (Ambit Biosciences) KINOMEscan
# Description: as §1, §2, §3
# [27] = target: T27, PDPK1 (Homo sapiens, UniProt O15530); conditions: read-out: %Inhibition by 10 μM SPA70
# T27 construct: purchased DiscoverX (Ambit Biosciences) KINOMEscan
# Description: as §1, §2, §3
# [28] = target: T28, MYLK (Homo sapiens, UniProt Q15746); conditions: read-out: %Inhibition by 10 μM SPA70
# T28 construct: purchased DiscoverX (Ambit Biosciences) KINOMEscan
# Description: as §1, §2, §3
# [29] = target: T29, SGK3 (Homo sapiens, UniProt Q96BR1); conditions: read-out: %Inhibition by 10 μM SPA70
# T29 construct: purchased DiscoverX (Ambit Biosciences) KINOMEscan
# Description: as §1, §2, §3
# [30] = target: T30, INSRR (Homo sapiens, UniProt P14616); conditions: read-out: %Inhibition by 10 μM SPA70
# T30 construct: purchased DiscoverX (Ambit Biosciences) KINOMEscan
# T30 sequence (P14616 27-1297): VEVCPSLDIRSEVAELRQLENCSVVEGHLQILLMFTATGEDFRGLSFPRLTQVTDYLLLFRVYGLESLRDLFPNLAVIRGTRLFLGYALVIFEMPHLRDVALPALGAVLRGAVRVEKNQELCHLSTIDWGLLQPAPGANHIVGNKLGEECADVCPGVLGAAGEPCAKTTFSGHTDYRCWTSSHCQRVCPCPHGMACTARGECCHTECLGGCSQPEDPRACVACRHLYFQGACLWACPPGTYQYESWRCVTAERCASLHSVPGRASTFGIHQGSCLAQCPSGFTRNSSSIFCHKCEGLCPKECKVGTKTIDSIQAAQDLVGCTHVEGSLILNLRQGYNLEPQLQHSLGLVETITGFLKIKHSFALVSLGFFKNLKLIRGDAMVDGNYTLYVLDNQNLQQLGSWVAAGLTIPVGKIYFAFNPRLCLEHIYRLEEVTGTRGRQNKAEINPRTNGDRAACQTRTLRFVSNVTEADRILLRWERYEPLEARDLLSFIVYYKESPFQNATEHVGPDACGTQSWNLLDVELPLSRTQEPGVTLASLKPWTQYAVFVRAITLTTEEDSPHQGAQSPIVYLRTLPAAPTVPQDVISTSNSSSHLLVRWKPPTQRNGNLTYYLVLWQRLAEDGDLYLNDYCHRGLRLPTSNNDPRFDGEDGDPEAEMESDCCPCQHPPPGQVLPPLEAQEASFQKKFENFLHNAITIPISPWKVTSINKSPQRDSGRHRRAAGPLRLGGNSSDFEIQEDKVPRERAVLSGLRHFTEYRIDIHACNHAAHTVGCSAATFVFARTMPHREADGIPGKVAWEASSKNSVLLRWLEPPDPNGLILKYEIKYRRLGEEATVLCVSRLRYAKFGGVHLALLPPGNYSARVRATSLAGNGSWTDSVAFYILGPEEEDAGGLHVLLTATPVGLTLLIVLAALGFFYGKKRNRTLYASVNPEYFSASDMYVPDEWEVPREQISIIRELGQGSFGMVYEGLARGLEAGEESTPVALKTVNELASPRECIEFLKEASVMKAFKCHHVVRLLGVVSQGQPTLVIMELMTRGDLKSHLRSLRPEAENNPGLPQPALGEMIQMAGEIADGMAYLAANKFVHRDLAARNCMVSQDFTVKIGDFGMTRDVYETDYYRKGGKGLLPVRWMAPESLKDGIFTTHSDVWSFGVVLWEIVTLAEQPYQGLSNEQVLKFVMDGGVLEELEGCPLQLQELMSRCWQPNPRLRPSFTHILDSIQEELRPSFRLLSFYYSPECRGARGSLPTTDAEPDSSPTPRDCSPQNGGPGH
# Description: as §1, §2, §3
# [31] = target: T31, VEGFR2 (Homo sapiens, UniProt P35968); conditions: read-out: %Inhibition by 10 μM SPA70
# T31 construct: purchased DiscoverX (Ambit Biosciences) KINOMEscan
# Description: as §1, §2, §3
# [32] = target: T32, CDC2L5 (Homo sapiens, UniProt Q14004)
# T32 construct: purchased DiscoverX (Ambit Biosciences) KINOMEscan
# Description: as §1, §2, §3
# [33] = target: T33, TXK (Homo sapiens, UniProt P42681); conditions: read-out: %Inhibition by 10 μM SPA70
# T33 construct: purchased DiscoverX (Ambit Biosciences) KINOMEscan
# Description: as §1, §2, §3
# [34] = target: T34, PAK6 (Homo sapiens, UniProt Q9NQU5); conditions: read-out: %Inhibition by 10 μM SPA70
# T34 construct: purchased DiscoverX (Ambit Biosciences) KINOMEscan
# Description: as §1, §2, §3
# [35] = target: T35, PIM2 (Homo sapiens, UniProt Q9P1W9); conditions: read-out: %Inhibition by 10 μM SPA70
# T35 construct: purchased DiscoverX (Ambit Biosciences) KINOMEscan
# T35 sequence (Q9P1W9 whole entry): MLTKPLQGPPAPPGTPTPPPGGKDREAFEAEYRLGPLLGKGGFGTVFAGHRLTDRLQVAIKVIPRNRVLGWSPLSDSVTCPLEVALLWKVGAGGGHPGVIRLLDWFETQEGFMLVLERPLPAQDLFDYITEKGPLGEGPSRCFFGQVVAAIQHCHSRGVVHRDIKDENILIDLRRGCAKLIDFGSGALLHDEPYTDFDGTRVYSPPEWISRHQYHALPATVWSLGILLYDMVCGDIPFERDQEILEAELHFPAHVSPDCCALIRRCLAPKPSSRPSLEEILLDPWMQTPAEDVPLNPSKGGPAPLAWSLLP
# Description: as §1, §2, §3
# [36] = target: T36, MAP4K2 (Homo sapiens, UniProt Q12851); conditions: read-out: %Inhibition by 10 μM SPA70
# T36 construct: purchased DiscoverX (Ambit Biosciences) KINOMEscan
# Description: as §1, §2, §3
# [37] = target: T37, PIP5K2B (Homo sapiens, UniProt P78356); conditions: read-out: %Inhibition by 10 μM SPA70
# T37 construct: purchased DiscoverX (Ambit Biosciences) KINOMEscan
# T37 sequence (P78356 whole entry): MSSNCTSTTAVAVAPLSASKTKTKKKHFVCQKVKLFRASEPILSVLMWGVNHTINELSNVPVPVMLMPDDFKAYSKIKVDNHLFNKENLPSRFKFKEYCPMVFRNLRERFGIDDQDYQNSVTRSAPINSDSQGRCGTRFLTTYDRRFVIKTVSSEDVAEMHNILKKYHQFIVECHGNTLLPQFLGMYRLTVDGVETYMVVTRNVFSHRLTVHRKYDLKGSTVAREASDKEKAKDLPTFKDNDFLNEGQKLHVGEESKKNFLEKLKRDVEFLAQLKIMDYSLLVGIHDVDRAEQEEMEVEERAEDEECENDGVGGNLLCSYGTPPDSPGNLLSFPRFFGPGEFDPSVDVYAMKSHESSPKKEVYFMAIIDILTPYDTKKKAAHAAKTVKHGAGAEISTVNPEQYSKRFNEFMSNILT
# Description: as §1, §2, §3
# [38] = target: T38, LZK (Homo sapiens, UniProt O43283)
# T38 construct: purchased DiscoverX (Ambit Biosciences) KINOMEscan
# Description: as §1, §2, §3
# [39] = target: T39, p38-beta (Homo sapiens, UniProt Q15759); conditions: read-out: %Inhibition by 10 μM SPA70
# T39 construct: purchased DiscoverX (Ambit Biosciences) KINOMEscan
# Description: as §1, §2, §3
# [40] = target: T40, PRKCD (Homo sapiens, UniProt Q05655); conditions: read-out: %Inhibition by 10 μM SPA70
# T40 construct: purchased DiscoverX (Ambit Biosciences) KINOMEscan
# Description: as §1, §2, §3
# [41] = target: T41, CDK4-cyclinD1 (Homo sapiens, UniProt P11802); conditions: read-out: %Inhibition by 10 μM SPA70
# T41 construct: purchased DiscoverX (Ambit Biosciences) KINOMEscan
# Description: as §1, §2, §3
# [42] = target: T42, PFTAIRE2 (Homo sapiens, UniProt Q96Q40); conditions: read-out: %Inhibition by 10 μM SPA70
# T42 construct: purchased DiscoverX (Ambit Biosciences) KINOMEscan
# Description: as §1, §2, §3
compound,measurement,setting,value
COc1ccc(OC)c(-n2nnc(S(=O)(=O)c3ccc(C(C)(C)C)cc3)c2C)c1 [SPA70],inhibition at 10 µM,[1],2%
same,inhibition at 10 µM,[2],0%
same,inhibition at 10 µM,[3],0%
same,%Inhibition by 10 μM SPA70,[4],0%
same,inhibition at 10 µM,[5],6%
same,inhibition at 10 µM,[6],0%
same,%Inhibition by 10 μM SPA70,[7],0%
same,inhibition at 10 µM,[8],23%
same,inhibition at 10 µM,[9],0%
same,inhibition at 10 µM,[10],0%
same,inhibition at 10 µM,[11],0%
same,inhibition at 10 µM,[12],0%
same,inhibition at 10 µM,[13],7%
same,inhibition at 10 µM,[14],0%
same,%Inhibition by 10 μM SPA70,[15],0%
same,inhibition at 10 µM,[16],0%
same,%Inhibition by 10 μM SPA70,[17],9%
same,%Inhibition by 10 μM SPA70,[18],0%
same,%Inhibition by 10 μM SPA70,[19],0%
same,inhibition at 10 µM,[20],0%
same,inhibition at 10 µM,[21],6%
same,inhibition at 10 µM,[22],0%
same,inhibition at 10 µM,[23],0%
same,inhibition at 10 µM,[24],0%
same,inhibition at 10 µM,[25],0%
same,inhibition at 10 µM,[26],3%
same,inhibition at 10 µM,[27],0%
same,inhibition at 10 µM,[28],0%
same,inhibition at 10 µM,[29],0%
same,inhibition at 10 µM,[30],0%
same,inhibition at 10 µM,[31],0%
same,%Inhibition by 10 μM SPA70,[32],0%
same,inhibition at 10 µM,[33],0%
same,inhibition at 10 µM,[34],4%
same,inhibition at 10 µM,[35],0%
same,inhibition at 10 µM,[36],0%
same,inhibition at 10 µM,[37],0%
same,%Inhibition by 10 μM SPA70,[38],0%
same,inhibition at 10 µM,[39],0%
same,inhibition at 10 µM,[40],5%
same,inhibition at 10 µM,[41],20%
same,inhibition at 10 µM,[42],0%
